Results reported in ChEMBL document CHEMBL1201862, “PubChem BioAssay data set” (2004).
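Five concentrations, 48 hours, 96-well plates. At the GI50, growth is halved.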 Calls of active or inactive are those of the source. Cut-off read from the data, not from the text of the source: active = GI50 up to about 1.1 µM and inactive = higher.

What was measured:
Assay in all cases: NCI anticancer screen, dose series, 48 h
[1] = system: SNB-75
[2] = system: NCI-H460
[3] = system: PC-3
[4] = system: SNB-19
[5] = system: MDA-MB-435
[6] = system: OVCAR-8
[7] = system: HL-60
[8] = system: HCT-15
[9] = system: TK-10
[10] = system: A549
[11] = system: ACHN
[12] = system: U-251
[13] = system: 786-0
[14] = system: M14
[15] = system: COLO 205
[16] = system: NCI-H23
[17] = system: UO-31
[18] = system: SW-620
[19] = system: HCC 2998

For `O=C(O)CCNc1ncc2c(n1)-c1ccccc1OC2`, the GI50 [1] was 28.8 µM (inactive), the GI50 [2] was > 100 µM (inactive) and the GI50 [3] was > 100 µM (inactive). For the same compound, the GI50 [4] was > 100 µM (inactive), the GI50 [5] was > 100 µM (inactive) and the GI50 [6] was > 100 µM (inactive). For the same compound, the GI50 [7] was > 100 µM (inactive), the GI50 [8] was over 100 µM and the GI50 [9] was > 100 µM (inactive). For the same compound, the GI50 [10] was > 100 µM (inactive), the GI50 [11] was > 100 µM (inactive) and the GI50 [12] was > 100 µM (inactive). The GI50 [13] was > 100 µM (inactive), the GI50 [14] was > 100 µM (inactive) and the GI50 [15] was > 100 µM (inactive). For the same compound, the GI50 [16] was > 100 µM (inactive), the GI50 [17] was > 100 µM (inactive) and the GI50 [18] was > 100 µM (inactive).
In the case of `C=C1CC(c2ccc(O)c(OC)c2)Oc2c(OC)cccc21` (configuration not stated), the GI50 [1] is reported as 39.2 µM (inactive), the GI50 [2] is reported as 35.1 µM (inactive) and the GI50 [4] is reported as 44.9 µM (inactive). The GI50 [6] was 31.1 µM (inactive), the GI50 [7] was 13 µM (inactive) and the GI50 [8] was 34 µM. The GI50 [9] was 99.3 µM (inactive), the GI50 [10] was 33.7 µM (inactive) and the GI50 [11] was 47.4 µM (inactive). The GI50 [12] was 30.7 µM (inactive), the GI50 [13] was 58.9 µM (inactive) and the GI50 [14] was 34 µM (inactive). The GI50 [19] was > 100 µM (inactive), the GI50 [15] was > 100 µM (inactive) and the GI50 [16] was 32.9 µM (inactive). For the same compound, the GI50 [17] was 60.3 µM (inactive) and the GI50 [18] was 34 µM (inactive).
With `CC1(C)CCc2cc3c(cc2O1)OCC1c2cc4c(cc2OC31)OCO4` (configuration not stated) the GI50 [1] was > 100 µM (inactive), the GI50 [2] was 54.5 µM (inactive) and the GI50 [4] was > 100 µM (inactive). For the same compound, the GI50 [6] was > 100 µM (inactive), the GI50 [7] was 35.5 µM (inactive) and the GI50 [8] was 63 µM. For the same compound, the GI50 [9] was 99.8 µM (inactive), the GI50 [10] was > 100 µM (inactive) and the GI50 [11] was > 100 µM (inactive). For the same compound, the GI50 [12] was > 100 µM (inactive), the GI50 [13] was > 100 µM (inactive) and the GI50 [14] was > 100 µM (inactive). The GI50 [19] was > 100 µM (inactive), the GI50 [15] was > 100 µM (inactive) and the GI50 [16] was > 100 µM (inactive). For the same compound, the GI50 [17] was > 100 µM (inactive) and the GI50 [18] was > 100 µM (inactive).
`Cc1n[nH]c(=O)n1/N=C\c1ccccc1` was tested, and the GI50 [2] was > 100 µM (inactive), the GI50 [3] was > 100 µM (inactive) and the GI50 [5] was > 100 µM (inactive). For the same compound, the GI50 [6] was > 100 µM (inactive), the GI50 [7] was > 100 µM (inactive) and the GI50 [8] was over 100 µM. The GI50 [9] was > 100 µM (inactive), the GI50 [10] was > 100 µM (inactive) and the GI50 [11] was > 100 µM (inactive). For the same compound, the GI50 [12] was > 100 µM (inactive), the GI50 [13] was > 100 µM (inactive) and the GI50 [19] was > 100 µM (inactive). The GI50 [15] was > 100 µM (inactive), the GI50 [16] was > 100 µM (inactive) and the GI50 [17] was > 100 µM (inactive). For the same compound, the GI50 [18] was > 100 µM (inactive).
In the case of `Cc1cccc(C)c1NC(=O)CCCC(=O)C1/C(=N/NC(=O)CC#N)CCC/C1=N\NC(=O)CC#N` (configuration not stated), the GI50 [1] is reported as > 100 µM (inactive), the GI50 [2] is reported as > 100 µM (inactive) and the GI50 [4] is reported as > 100 µM (inactive). The GI50 [6] was > 100 µM (inactive), the GI50 [7] was > 100 µM (inactive) and the GI50 [8] was over 100 µM. For the same compound, the GI50 [9] was > 100 µM (inactive), the GI50 [10] was > 100 µM (inactive) and the GI50 [11] was > 100 µM (inactive). The GI50 [12] was > 100 µM (inactive), the GI50 [13] was > 100 µM (inactive) and the GI50 [14] was > 100 µM (inactive). The GI50 [19] was > 100 µM (inactive), the GI50 [15] was > 100 µM (inactive) and the GI50 [16] was > 100 µM (inactive). For the same compound, the GI50 [17] was > 100 µM (inactive) and the GI50 [18] was > 100 µM (inactive).
`CCCCC/C=C1\CCC(CN(C)C)C1=O` (configuration not stated) was tested, and the GI50 [1] was 16.2 µM (inactive), the GI50 [2] was 31.5 µM (inactive) and the GI50 [4] was 19.5 µM (inactive). For the same compound, the GI50 [6] was > 21.5 µM (inactive), the GI50 [7] was 6.97 µM (inactive) and the GI50 [8] was 3.17 µM. For the same compound, the GI50 [9] was > 23.4 µM (inactive), the GI50 [10] was 34.1 µM (inactive) and the GI50 [11] was 13.9 µM (inactive). The GI50 [12] was 8.2 µM (inactive), the GI50 [13] was 2.71 µM (inactive) and the GI50 [14] was 14.1 µM (inactive). The GI50 [19] was 16.9 µM (inactive), the GI50 [15] was 8.99 µM (inactive) and the GI50 [16] was 17.7 µM (inactive). The GI50 [17] was 17 µM (inactive) and the GI50 [18] was 3.76 µM (inactive).
